Laboratory results published in PubChem BioAssay AID1774 (Sanford-Burnham Center for Chemical Genomics, 2009).
Calls of active or inactive are those of the source. The rule behind the calls is not given here.

Test system: MDA-MB-435 cytotoxicity with apoptosis inducers, ATPlite, 24 h
Experiment: PubChem AID 1774
Settings: stronger effect = higher value

Q: `CSc1nc(-c2ccc(C)cc2)nc(C(Cl)Cl)n1` was tested. Which cytotoxicity (at 5 µM) did it give?
A: The cytotoxicity was -11% (inactive).

Q: And the cytotoxicity (compound alone 2.5 uM, at 2.5 µM)?
A: The cytotoxicity was -19%.

Q: And the cytotoxicity (plus doxorubicin 50 ug/mL, at 5 µM)?
A: Its cytotoxicity is 30%.

Q: And the cytotoxicity (plus doxorubicin 100 ug/mL, at 5 µM)?
A: Its cytotoxicity is 75%.

Q: What about the cytotoxicity (plus etoposide 50 uM, at 5 µM) of the same molecule?
A: The cytotoxicity was 18%.

Q: And the cytotoxicity (plus etoposide 100 uM, at 5 µM)?
A: The cytotoxicity was 14%.

Q: And the cytotoxicity (plus thapsigargin 3 uM, at 5 µM)?
A: The cytotoxicity was 17%.

Q: And the cytotoxicity (plus thapsigargin 10 uM, at 5 µM)?
A: Its cytotoxicity is -7%.

Q: And the cytotoxicity (plus tunicamycin 10 ug/mL, at 5 µM)?
A: Its cytotoxicity is 10%.

Q: And the cytotoxicity (plus tunicamycin 30 ug/mL, at 5 µM)?
A: Its cytotoxicity is 16%.
